The test deals with Protein cereblon (Homo sapiens, UniProt Q96SW2). Kind of test: Protocol for Fluorescent Polarization assay. The method, then: Compound activity was monitored in a fluorescence polarization (FP) homogeneous assay using 1 -[5-({2-[2-(2-{[2-(2,6-dioxopiperidin-3-yl)-1 ,3-dioxo-2,3-dihydro-1 H-isoindol-4-yl]oxy}acetamido)ethoxy]ethyl}carbamoyl)pentyl]-3,3-dimethyl-2-[(1 E,3E)-5-[(2E)-1 ,3,3-trimethyl-5-sulfo-2,3-dihydro-1 H-indol-2-ylidene]penta-1 ,3-dien-1 -yl]-3H-indol-1 -ium-5-sulfonate as a fluorescent probe. Unless otherwise stated, all reagents were purchased from Sigma Aldrich. Enzymatic reactions were conducted in Perkin-Elmer Black 384 well ProxiPlate Plus (catalogue no. 6008269) in 10 μL total volume. Full length wild-type cereblon CRBN (80.0 nM, 10 μL) was incubated in assay buffer containing 20 mM HEPES (pH 8.0), 1 50 NaCl, 0.5 mM TCEP and 0.05% Tween 20 in the presence or absence of compound (300 nL). Inhibitors were stored as 10 mM DMSO stocks in an inert environment (low humidity, dark, low oxygen, room temperature) using the Storage Pod System. Compounds and DMSO were dispensed using the Echo E5XX (Labcyte Inc. USA) to give concentrations from 300 to 0.937 or 3000 to 9.3 nM in a 1 2 data point curve. […] FP was measured after a period of 1 2 hours using a Pherastar plate reader (BMG Labtech, Germany) exciting at 590 nm and measuring the amount of parallel and perpendicular light at 675 nm. […]

The values that follow come from BindingDB's records for patent WO2021069705 (MONTE ROSA THERAPEUTICS AG, 2021).

pIC50: −log10 of the molar value.

Sequence of Protein cereblon (Q96SW2 whole entry): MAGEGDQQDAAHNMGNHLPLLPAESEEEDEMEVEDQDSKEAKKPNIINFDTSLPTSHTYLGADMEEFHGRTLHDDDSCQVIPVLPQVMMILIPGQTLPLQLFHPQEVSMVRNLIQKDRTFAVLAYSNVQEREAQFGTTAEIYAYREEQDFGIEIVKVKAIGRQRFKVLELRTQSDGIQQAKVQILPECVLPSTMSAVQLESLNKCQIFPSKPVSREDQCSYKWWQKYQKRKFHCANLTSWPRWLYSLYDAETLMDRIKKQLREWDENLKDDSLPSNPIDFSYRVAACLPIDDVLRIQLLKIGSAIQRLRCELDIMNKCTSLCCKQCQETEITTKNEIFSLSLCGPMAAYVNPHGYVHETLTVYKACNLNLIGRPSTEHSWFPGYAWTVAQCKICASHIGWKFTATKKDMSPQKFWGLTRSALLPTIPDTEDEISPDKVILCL

In general, pIC50 refers to the IC50 on a negative log10 scale, so that one unit is a factor of ten. A low value points to a high IC50. For `O=C1CCC(N2Cc3ccc(CNC(=O)Nc4ccc(Br)cc4)cc3C2=O)C(=O)N1` (stereo unspecified) [WO2021069705, Compound 9], the pIC50 is 6.21.
